Reference: US6989396B2, “Tropane alkaloid multidrug resistance inhibitors from Erythroxylum pervillei and use of the same” (The Board of Trustees of the University of Illinois, priority 2001, dated 2006)
≈ marks a conversion by molar mass, not a printed value. Read-outs that look alike come from different tables or passages of the source.

Legend:
[1] = test system: SKOV3 (ovarian adenocarcinoma); assay: Cytotoxicity in ovarian adenocarcinoma SKOV3 (pGp -ve); type: cell-based
Procedure: (§1) Cytotoxicity assay. Compounds 1–9 were evaluated for cytotoxic activity against a panel of human cancer cell lines, including KB-V1 in the presence and absence of VLB, according to an established protocol (68).

[2] = test system: SKVLB (ovarian adenocarcinoma, multidrug resistance); assay: Multidrug resistance inhibition in SKVLB (pGp +ve); type: cell-based, human
BC1, breast cancer = assay: In vitro cytotoxicity, human tumor panel: BC1; type: cell-based; conditions: for IC50: Homo sapiens, read-out: ED50 BCI
Procedure: as §1

Lu1, lung cancer = assay: In vitro cytotoxicity, human tumor panel: Lu1; type: cell-based; conditions: for IC50: Homo sapiens, read-out: ED50 Lu1
Procedure: as §1

Col2, colon cancer = assay: In vitro cytotoxicity, human tumor panel: Col2; type: cell-based; conditions: for IC50: Homo sapiens, read-out: ED50 Col2
Procedure: as §1

[3] = test system: KB, oral epidermoid carcinoma; assay: In vitro cytotoxicity, human tumor panel: KB; type: cell-based; conditions: for IC50: Homo sapiens, read-out: ED50 KB
Procedure: as §1

KB-V1, drug resistant KB = assay: In vitro cytotoxicity, human tumor panel: KB-V1 with or without vinblastine; type: cell-based; conditions: for IC50: Homo sapiens, KB-V1, read-out: ED50 KB-V1−; for ED50 KB-V1+: drug resistant KB assessed in presence of vinblastine (1 μg/mL)
Procedure: as §1

[4] = test system: LNCaP, hormone-dependent prostate cancer; assay: In vitro cytotoxicity, human tumor panel: LNCaP; type: cell-based; conditions: for IC50: Homo sapiens, LNCaP, read-out: ED50 LNCaP
Procedure: as §1

[5] = test system: SW626, human ovarian adenocarcinoma; assay: In vitro cytotoxicity, human tumor panel: SW626; type: cell-based; conditions: for IC50: SW626, read-out: ED50 SW626
Procedure: as §1

CEM/VLB100 cells = assay: MDR reversal in drug-resistant human leukemia CEM/VLB100 cells; type: cell-based; conditions: Homo sapiens; CEM/VLB100 cells; read-out: IC50 value of the cytotoxic drug in the absence of modulator
Procedure: Cytotoxic potential. The cytotoxic potential of test substances with KB-3, KB-V1 and KB-8-5 cells was determined as described previously (24). Briefly, various concentrations of test compounds (dissolved in 10 μl of 10% DMSO) were transferred to 96-well plates, and 190 μl aliquots of cell suspensions (5×10^4 cells/ml) were added to each well. The plates then were incubated for 72 hours at 37° C. (100% humidity with a 5% CO2 atmosphere in air), and 100 μl of cold 20% aqueous trichloroacetic acid were added to the growth medium in each well to fix the cells. The cultures were incubated at 4° C. for 30 minutes, washed, air-dried, stained with sulforhodamine B solution, and washed with 1% acetic acid. […] In each case, a zero-day control was performed by adding an equivalent number of cells to several wells and incubating at 37° C. for 30 minutes, and processing as described above. Optical density values obtained with the zero-day control were subtracted, and cell survival, relative to control (solvent-treated) cultures, was calculated. The cytotoxic potential of the compounds with CEM and CEM/VLB100 cells was determined as described by Beck et al. (30). Cells were grown in 24-well plates at a density of 5–6×10^5 cells/ml. At 48 hours, the cell number was determined using a Coulter Counter, with a channelizer to distinguish cells from debris.

[6] = Homo sapiens, SK-OV-3; read-out: IC50 SKOV3 (pGp − ve)
[7] = Homo sapiens, no adriamycin added, read-out: IC50 BSKVLB (pGp + ve)
[8] = drug-resistant KB assessed in the absence of vinblastine

Row | SMILES | IC50 (BC1, breast cancer) | IC50 (Lu1, lung cancer) | IC50 (Col2, colon cancer) | IC50 [3] | IC50 (KB-V1, drug resistant KB; [8]) | ED50 KB-V1+ (KB-V1, drug resistant KB) | IC50 [4] | IC50 [5] | melting point | also measured
1 | COc1cc2c(cc1OC)CN(CCc1ccc(NC(=O)c3cccc4c(=O)c5cccc(OC)c5[nH]c34)cc1)CC2 [GB120918, N-{4-[2-(1,2,3,4-tetrahydro-6,7-dimethoxy-2-isoquinolinyl)-ethyl]-phenyl}-9,10-dihydro-5-methoxy-9-oxo-4-acridine carboxamide, reference compound] | – | – | – | – | – | – | – | – | – | IC50 [1, 6]: 8100 nM; IC50 ([2]; Homo sapiens, Addition of 1 μm adriamycin, read-out: IC50 SKVLB (pGp + ve), addition of adriamycin): 20 nM; IC50 [2, 7]: 14000 nM
2 | CN1[C@@H]2C[C@@H](OC(=O)Cc3ccccc3)C[C@H]1[C@H](O)[C@@H]2O [Compound 1, Tropane-3α,6β,7β-triol 3-phenylacetate] | > 20 µg/mL | > 20 µg/mL | > 20 µg/mL | > 20 µg/mL | > 20 µg/mL | >20 µg/mL | > 20 µg/mL | > 20 µg/mL | 120 to 122 °C | –
3 | COc1cc(C=CC(=O)O[C@H]2[C@@H](O)[C@@H]3C[C@H](OC(=O)c4cc(OC)c(OC)c(OC)c4)C[C@H]2[N+]3(C)[O-])cc(OC)c1OC (stereo partly drawn) [Compound 4, 3α-(3,4,5-trimethoxybenzoyloxy)-6β-(3,4,5-trimethoxycinnamoyloxy)-7β-hydroxytropane N-oxide] | > 20 µg/mL | > 20 µg/mL | > 20 µg/mL | > 20 µg/mL | > 20 µg/mL | >20 µg/mL | > 20 µg/mL | > 20 µg/mL | 118 to 121 °C | IC50 ([1]; Homo sapiens, SK-OV-3, read-out: IC50 SKOV3 (pGp − ve)): > 10000 nM; IC50 ([2]; Homo sapiens, read-out: IC50 BSKVLB (pGp + ve)): > 10000 nM; IC50 ([2]; read-out: IC50 SKVLB (pGp + ve), addition of adriamycin, Addition of 1 μm adriamycin): > 10000 nM
4 | COc1cccc2c1C(=O)c1c(O)c3c(c(O)c1C2=O)C[C@@](O)(C(C)=O)C[C@@H]3O[C@H]1C[C@H](N)[C@H](O)[C@H](C)O1 [daunorubicin, reference compound] | – | – | – | – | – | – | – | – | – | IC50 (CEM/VLB100 cells): 1000 nM
5 | COc1cccc2c1C(=O)c1c(O)c3c(c(O)c1C2=O)C[C@@](O)(C(=O)CO)C[C@@H]3O[C@H]1C[C@H](N)[C@H](O)[C@H](C)O1 [adriamycin, reference compound] | – | – | – | – | – | – | – | – | – | IC50 [1, 6]: 8 nM; IC50 [2, 7]: 2200 nM
6 | COc1cc(C(=O)O[C@H]2C[C@H]3CC[C@@H](C2)N3C)cc(OC)c1OC [Compound 2, 1αH,5αH-Tropan-3α-yl 3,4,5-trimethoxy-benzoate] | – | – | – | – | – | >20 µg/mL | – | – | – | ED50 BCI (BC1, breast cancer): >20 µg/mL; ED50 Lu1 (Lu1, lung cancer): >20 µg/mL; ED50 Col2 (Col2, colon cancer): >20 µg/mL; ED50 KB [3]: >20 µg/mL; ED50 KB-V1− (KB-V1, drug resistant KB; [8]): >20 µg/mL; ED50 LNCaP [4]: >20 µg/mL; ED50 SW626 [5]: >20 µg/mL
7 | COc1cc(C=CC(=O)O[C@H]2C[C@@H]3C[C@H](OC(=O)Cc4cccc(O)c4)C[C@H]2N3C)cc(OC)c1OC [Compound 8, 3α-(3-hydroxyphenylacetoxy)-6β-(3,4,5-trimethoxycinnamoyloxy)-tropane] | > 20 µg/mL | > 20 µg/mL | 13.4 µg/mL (≈ 26.2 µM) | 14.7 µg/mL (≈ 28.7 µM) | > 20 µg/mL | 1.9 µg/mL | > 20 µg/mL | 8.4 µg/mL (≈ 16.4 µM) | 53 to 57 °C | –
